Entries after “also recorded” stand apart in the source; their conditions may differ.
How the values were obtained:
[1] = target: T1, Brd4 bromodomain 1 (BRD4(1)) (Homo sapiens, UniProt O60885); test: Inhibition of tetra-acetylated histone H4 binding to BET bromodomain, HTRF/FRET; conditions: HTRF, 2 h incubation at room temperature
T1 construct: made in house; host or cells: E. coli BL21(DE3)
Protocol: Proteins are cloned and overexpressed with a N-terminal 6×His tag, then purified by nickel affinity followed by size exclusion chromatography. Briefly, E. coli BL21(DE3) cells are transformed with a recombinant expression vector encoding N-terminally Nickel affinity tagged bromodomains from Brd2, Brd3, Brd4. Cell cultures were incubated at 37° C. with shaking to the appropriate density and induced overnight with IPTG. The supernatant of lysed cells was loaded onto Ni-IDA column for purification. Eluted protein was pooled, concentrated and further purified by size exclusion chromatography. Fractions representing monomeric protein were pooled, concentrated, aliquoted, and frozen at −80° C. for use in subsequent experiments.
Binding of tetra-acetylated histone H4 and BET bromodomains is confirmed by a Homogenous Time Resolved Fluorescence Resonance Energy Transfer (HTRF®) method, N-terminally His-tagged bromodomains (200 nM) and biotinylated tetra-acetylated historic H4 peptide (25-50 nM, Millipore) are incubated in the presence of Europium Cryptate-labeled streptavidin (Cisbio Cat. #610SAKLB) and XL665-labeled monoclonal anti-His antibody (Cisbio Cat. #61HISXLB) in a white 96 well microtiter plate (Greiner). For inhibition assays, serially diluted test compound is added to these reactions in a 0.2% final concentration of DMSO. Duplicate wells are used for each concentration tested. Final buffer concentrations are 30 mM HEPES pH 7.4, 30 mM NaCl, 0.3 mM CHAPS, 20 mM phosphate pH 7.0, 320 mM KF, 0.08% BSA. After a 2 h incubation at room temperature, fluorescence is measured at 665 and 620 nm with a SynergyH4 plate reader (Biotek). The binding inhibitory activity is shown by a decrease in 665 nm relative to 620 nm fluorescence. IC50 values are determined from a dose response curve.

c-myc = test: Inhibition of cMYC expression in cancer cell lines (mRNA, real-time PCR); type: cell-based; conditions: Human AML MV4-11 cells, 3 h
Protocol: MV4-11 cells (CRL-9591) were plated at a density of 2.5×10^4 cells per well in 96 well U-bottom plates and treated with increasing concentrations of test compound or DMSO) (0.1%) in IMDM media containing 10% FBS and penicillin/streptomycin, and incubated for 3 h at 37° C. Triplicate wells were used for each concentration. Cells were pelleted by centrifugation and harvested using the mRNA Catcher PLUS kit according to manufacturer's instructions. The eluted mRNA isolated was then used in a one-step quantitative real-time PCR reaction, using components of the RNA UltraSense™ One-Step Kit (Life Technologies) together with Applied Biosystems TaqMan® primer-probes for cMYC and Cyclophilin. Real-time PCR plates were run on a ViiA™7 real time PCR machine (Applied Biosystems), data was analyzed, normalizing the Ct values for cMYC to an internal control, prior to determining the fold expression of each sample, relative to the control.

hIL-6 mRNA = test: Inhibition of hIL-6 mRNA transcription in LPS-stimulated U937 cells; type: cell-based; conditions: Homo sapiens, U-937; U937 cells differentiated with PMA, 1 h pretreatment, LPS 3 h; read-out: IL-6 activity
Protocol: Human leukemic monocyte lymphoma U937 cells (CRL-1593.2) were plated at a density of 3.2×10^4 cells per well in a 96-well plate in 100 μL RPMI-1640 containing 10% FBS and penicillin/streptomycin, and differentiated into macrophages for 3 days in 60 ng/mL PMA ([…]) at 37° C. in 5% CO2 prior to the addition of compound. The cells were pretreated for 1 h with increasing concentrations of test compound in 0.1% DMSO prior to stimulation with 1 ug/mL lipopolysaccharide from Escherichia coli. Triplicate wells were used for each concentration. The cells were incubated at 37° C., 5% CO2 for 3 h before the cells were harvested. At time of harvest, media was removed and cells were rinsed in 200 μL PBS. Cells were harvested using the mRNA Catcher PLUS kit according to manufacturer's instructions. The eluted mRNA was then used in a one-step quantitative real-time PCR reaction using components of the RNA UltraSense™ One-Step Kit (Life Technologies) together with Applied Biosystems TaqMan® primer-probes for hIL-6 and Cyclophilin. Real-time PCR plates were run on a ViiA™7 real time PCR machine (Applied Biosystems), data was analyzed, normalizing the Ct values for hIL-6 to an internal control, prior to determining the fold expression of each sample, relative to the control.

Human AML MV-4-11 cells = test: Inhibition of cell proliferation in cancer cell lines; type: cell-based; conditions: MV4-11, 72 h
Protocol: MV4-11 cells (CRL-9591) were plated at a density of 5×10^4 cells per well in 96 well flat bottom plates and treated with increasing concentrations of test compound or DMSO (0.1%) in IMDM media containing 10% FBS and penicillin/streptomycin. Triplicate wells were used for each concentration and a well containing only media was used as a control. Plates were incubated at 37° C., 5% CO2 for 72 h before adding 20 μL of the CellTiter Aqueous One Solution (Promega) to each well and incubated at 37° C., 5% CO2 for an additional 3-4 h. The absorbance was read at 490 nm in a spectrophotometer and the percentage of cell titer relative to DMSO-treated cells was calculated after correcting for background by subtracting the blank well's signal. IC50 values were calculated using the GraphPad Prism software.

MV4-11 cells = test: Washout proliferation: effect of covalent binding on durability of proliferation; type: cell-based, Human; conditions: IC90 concentration for 24 h, then washout; for Percent proliferation relative to DMSO, 24 h: 24 h post washout; for Percent proliferation relative to DMSO, 48 h: 48 h post washout; for Percent proliferation relative to DMSO, 72 h: 72 h post washout
Protocol: MV4-11 cells (CRL-9591) were plated at a density of 5×10^4 cells per well in 96 well flat bottom plates and treated with IC90 concentration of covalent vs. non-covalent control compound or DMSO (0.1%) in IMDM media containing 10% FBS and penicillin/streptomycin. Triplicate wells were used for each concentration and a well containing only media is used as a control. Plates were incubated at 37° C., 5% CO2 for 24 h after which the compounds were removed, replaced with media, and proliferation was measured at 24, 48 and 72 hours post washout by adding 20 μL of the Cell Titer Aqueous One Solution (Promega) to each well and incubated at 37° C., 5% CO2 for an additional 3-4 h. The absorbance was read at 490 nm in a spectrophotometer and the percentage of cell titer relative to DMSO-treated cells was calculated after correcting for background by subtracting the blank well's signal. IC50 values are calculated using the GraphPad Prism software.

BET bromodomains = test: Thermal shift assay to monitor covalent binding to BET bromodomains; conditions: 100 μM compound, 5 μM protein, 30 minutes or 4 hours at room temperature
Protocol: 5 μM of purified bromodomain protein was incubated with 5× SYPRO® Orange (Molecular Probes) at a final concentration of 20 mM HEPES pH 7.4, 100 mM NaCl in the presence of 100 μM compound or DMSO (0.2%) in a fast 96 well optical plate (Applied Biosystems). Samples were incubated at room temperature for 30 minutes or 4 hours and ramped from 25° C. to 95° C. in a ViiA7 real-time PCR machine (Applied Biosystems). The resulting fluorescence data was analyzed and melting temperatures calculated using Protein Thermal Shift™ Software v1.0 (Life Technologies). A thermal shift indicates covalent binding of the inhibitor to the protein.

| Structure (SMILES) | IC50 [1] [µM] | IC50 (c-myc) [µM] | IC50 (hIL-6 mRNA) [µM] | IC50 (Human AML MV-4-11 cells) [µM] | Percent proliferation relative to DMSO, 0 h (MV4-11 cells) [%] | Percent proliferation relative to DMSO, 24 h (MV4-11 cells) [%] | Percent proliferation relative to DMSO, 48 h (MV4-11 cells) [%] | Percent proliferation relative to DMSO, 72 h (MV4-11 cells) [%] | Thermal shift: covalent binding to bromodomain protein (BET bromodomains) |
| --- | --- | --- | --- | --- | --- | --- | --- | --- | --- |
| Cc1noc(C)c1-c1cnc2nc(C)n(Cc3ccc(C(=O)CCl)cc3)c2c1 [Example 6, 2-Chloro-1-(4-((6-(3,5-dimethylisoxazol-4-yl)-2-methyl-1H-imidazo[4,5-b]pyridin-1-yl)methyl)phenyl)ethanone] | ≤ 0.3 |  |  |  |  |  |  |  |  |
| Cc1noc(C)c1-c1cnc2nc(C)n(Cc3ccc(CC4CO4)cc3)c2c1 (stereo not drawn) [Example 7, 3,5-Dimethyl-4-(2-methyl-1-(4-(oxiran-2-ylmethyl)benzyl)-1H-imidazo[4,5-b]pyridin-6-yl)isoxazole] | ≤ 0.3 |  |  |  |  |  |  |  |  |
| Cc1noc(C)c1-c1cc(N)c(=O)n(Cc2ccc(C3CO3)cc2)c1 (stereo not drawn) [Example 3, 3-amino-5-(3,5-dimethylisoxazol-4-yl)-1-(4-(oxiran-2-yl)benzyl)pyridin-2(1H)-one] | ≤ 0.3 | 3 to 30 | 0.3 to 3 | 3 to 30 |  |  |  |  |  |
| Cc1noc(C)c1-c1ccc(=O)n(Cc2ccc(C3CO3)c(F)c2)c1 (stereo not drawn) [Example 1, 5-(Dimethyl-1,2-oxazol-4-yl)-1-(3-fluoro-4-(oxiran-2-yl)benzyl)pyridin-2(1H)-one] | ≤ 0.3 | 3 to 30 | 3 to 30 | 3 to 30 | 30 | 2 | 10 | 5 | bind covalently; also recorded: time-dependent formation of the covalent complex |

Further lines, with some results ahead:

| IC50 [1] [µM] | IC50 (c-myc) [µM] | IC50 (hIL-6 mRNA) [µM] | IC50 (Human AML MV-4-11 cells) [µM] | Structure (SMILES) | Percent proliferation relative to DMSO, 0 h (MV4-11 cells) [%] | Percent proliferation relative to DMSO, 24 h (MV4-11 cells) [%] | Percent proliferation relative to DMSO, 48 h (MV4-11 cells) [%] | Percent proliferation relative to DMSO, 72 h (MV4-11 cells) [%] | Thermal shift: covalent binding to bromodomain protein (BET bromodomains) |
| --- | --- | --- | --- | --- | --- | --- | --- | --- | --- |
| ≤ 0.3 | 0.3 to 3 |  |  | Cc1noc(C)c1-c1cnc2nc(C)n(Cc3ccc(CCCl)cc3)c2c1 [Example 5, 4-(1-(4-(2-Chloroethyl)benzyl)-2-methyl-1H-imidazo[4,5-b]pyridin-6-yl)-3,5-dimethylisoxazole] |  |  |  |  |  |
| 0.3 to 3 | 0.3 to 3 | 0.3 to 3 | 0.3 to 3 | Cc1noc(C)c1-c1cc(N)c2ncn(Cc3ccc(C4CO4)cc3)c2c1 (stereo not drawn) [Example 4, 6-(Dimethyl-1,2-oxazol-4-yl)-1-{[4-(oxiran-2-yl)phenyl]methyl}-1H-1,3-benzodiazol-4-amine] | 41 | 0.2 | 15 | 13 | bind covalently; also recorded: time-dependent formation of the covalent complex |
| ≤ 0.3 | 3 to 30 | 3 to 30 | 3 to 30 | Cc1noc(C)c1-c1ccc(=O)n(Cc2ccc(C3CO3)cc2)c1 (stereo not drawn) [Example 2, 5-(dimethyl-1,2-oxazol-4-yl)-1-{[4-(oxiran-2-yl)phenyl]methyl}-1,2-dihydropyridin-2-one] |  |  |  |  |  |

— US10231953B2, “Inhibitors of bromodomains” (Zenith Epigenetics Ltd., priority 2014, dated 2019)
